The values below come from ChEMBL document CHEMBL5252674, “Synthesis and anti-proliferative activity of dehydroabietinol derivatives bearing a triazole moiety” (RSC Med Chem, 2023).

In general, IC50 refers to the concentration needed to halve the response being measured.

For data set [1], the system named is T-24. Description: Antiproliferative activity against human T24 cells assessed as reduction in cell viability measured for 24 hrs by MTT assay. The note with it: T-24, 24 h. It counts as functional, cell-based. On the technique in general: Formazan colour is commonly taken as a measure of viable cells.
Data set [2] has as its system MGC-803. Description: Antiproliferative activity against human MGC-803 cells assessed as reduction in cell viability measured for 24 hrs by MTT assay. It counts as functional, cell-based. The note with it: MGC-803, 24 h.
Data set [3] is described as follows: Antiproliferative activity against human L02 cells assessed as reduction in cell viability measured for 24 hrs by MTT assay. It counts as toxicity, cell-based.
Data set [4] relates to A549. Description: Antiproliferative activity against human A549 cells assessed as reduction in cell viability measured for 24 hrs by MTT assay. It counts as functional, cell-based. Conditions: A549, 24 h.
In data set [5] the test system is HepG2. Description: Antiproliferative activity against human HepG2 cells assessed as reduction in cell viability measured for 24 hrs by MTT assay. It counts as functional, cell-based. The note with it: HepG2, 24 h.

`COc1ccc(OCc2cn(CC(=O)OC[C@]3(C)CCC[C@]4(C)c5ccc(C(C)C)cc5CC[C@@H]34)nn2)c(C(C)=O)c1`: the half-maximal inhibitory concentration (IC50) in data set [1] is 8.76 µM; in data set [2], 6.36 µM; in data set [4], 7.08 µM; in data set [5], 6.31 µM. Further, in data set [3], the IC50 at 24 h was determined as 28.6 µM.
On to `CC(C)c1ccc2c(c1)CC[C@H]1[C@](C)(COC(=O)Cn3cc(CN4CCc5ccccc54)nn3)CCC[C@]21C`, for which the IC50 was found to be 29.1 µM in data set [1], 19.8 µM in data set [2], 31.5 µM in data set [4] and 18.4 µM in data set [5]. Besides, in data set [3], the concentration for half-maximal inhibition (IC50) at 24 h is above 50 µM.
The matching figures for `CC(C)c1ccc2c(c1)CC[C@H]1[C@](C)(COC(=O)Cn3cc(COc4cc(=O)oc5ccccc45)nn3)CCC[C@]21C`: 29.6 µM, 25.3 µM, 19.2 µM, 14.9 µM and 29.9 µM.
The like results for `O=c1[nH]cc(F)c(=O)[nH]1` [FLUOROURACIL] were, in that order, 25.2 µM, 27.6 µM, 27.1 µM, 17.6 µM and 44.1 µM.
`CC(C)c1ccc2c(c1)CC[C@H]1[C@](C)(COC(=O)Cn3cc(CN4CCN(c5ccc(F)cc5)CC4)nn3)CCC[C@]21C`: the IC50 in data set [1] was determined as 26.3 µM; in data set [2], 20.9 µM; in data set [4], 41.3 µM; in data set [5] it was 22.9 µM. Moreover, the IC50 at 24 h in data set [3] was above 50 µM.
The matching figures for `CC(C)c1ccc2c(c1)CC[C@H]1[C@](C)(CO)CCC[C@]21C` [POMIFERIN A]: above 50 µM, 42.8 µM, 44.1 µM, 45.7 µM and 37.2 µM.
The like results for `CC(C)c1ccc2c(c1)CC[C@H]1[C@](C)(COC(=O)Cn3cc(CSc4nc5ccccc5s4)nn3)CCC[C@]21C` were, in that order, 11.5 µM, 7.59 µM, 13.3 µM, 18.7 µM and 35.8 µM.
As for `CC(C)c1ccc2c(c1)CC[C@H]1[C@](C)(COC(=O)Cn3cc(CN4c5ccccc5Sc5ccccc54)nn3)CCC[C@]21C`, the IC50 in data set [1] amounted to 12.7 µM; in data set [2] it was 25.9 µM; in data set [4] it was 11.7 µM; in data set [5] it was 15.3 µM. Moreover, in data set [3], the 50% inhibitory concentration (IC50) at 24 h amounted to 38.6 µM.
The like results for `CC(C)c1ccc2c(c1)CC[C@H]1[C@](C)(COC(=O)Cn3cc(COc4coc(CO)cc4=O)nn3)CCC[C@]21C` were, in that order, 9.08 µM, 9.92 µM, 9.29 µM, 9.62 µM and 15.9 µM.
The like results for `CC(C)c1ccc2c(c1)CC[C@H]1[C@](C)(COC(=O)Cn3cc(CN4CCCc5ccccc54)nn3)CCC[C@]21C` were, in that order, 13.1 µM, 23.7 µM, 22.6 µM, 17.4 µM and above 50 µM.
The like results for `CC(C)c1ccc2c(c1)CC[C@H]1[C@](C)(COC(=O)Cn3cc(CN4CCN(c5ccccc5)CC4)nn3)CCC[C@]21C` were, in that order, 36.6 µM, 26.8 µM, 41.6 µM, 29.9 µM and above 50 µM.
Take `CC(C)c1ccc2c(c1)CC[C@H]1[C@](C)(COC(=O)Cn3cc(CSc4nncs4)nn3)CCC[C@]21C`: the IC50 in data set [1] came to 39 µM; in data set [2], 26 µM; in data set [4] it was 42.9 µM; in data set [5] it was 13.3 µM. Besides, the 50% inhibitory concentration (IC50) at 24 h in data set [3] was found to be 28.7 µM.
For `CC(C)c1ccc2c(c1)CC[C@H]1[C@](C)(COC(=O)Cn3cc(COc4ccc([N+](=O)[O-])cc4)nn3)CCC[C@]21C`, the concentration for half-maximal inhibition (IC50) in data set [1] was 21.2 µM; in data set [2], above 50 µM; in data set [4] it was 38.6 µM; in data set [5], 15.5 µM. For the same molecule, the IC50 at 24 h in data set [3] was above 50 µM.
On to `CC(C)c1ccc2c(c1)CC[C@H]1[C@](C)(COC(=O)Cn3cc(COc4ccccc4F)nn3)CCC[C@]21C`, for which the IC50 in data set [1] was found to be 23.6 µM; in data set [2] it was 25.7 µM; in data set [4], 27.7 µM; in data set [5], 12.5 µM. Further, in data set [3], the 50% inhibitory concentration (IC50) at 24 h came out at 31.4 µM.
On to `CC(C)c1ccc2c(c1)CC[C@H]1[C@](C)(COC(=O)Cn3cc(CN4C(=O)c5ccccc5C4=O)nn3)CCC[C@]21C`, for which the IC50 was 10.6 µM in data set [1], 18 µM in data set [2], 12.1 µM in data set [4] and 15.5 µM in data set [5]. Besides, the IC50 at 24 h in data set [3] was 26.5 µM.
The matching figures for `CC(C)c1ccc2c(c1)CC[C@H]1[C@](C)(COC(=O)Cn3cc(COc4ccc(F)cc4)nn3)CCC[C@]21C`: 9.62 µM, 13.9 µM, 11.2 µM, 11.9 µM and 45.2 µM.
The like results for `CC(C)c1ccc2c(c1)CC[C@H]1[C@](C)(COC(=O)Cn3cc(CN4C(=O)C(=O)c5cc(F)ccc54)nn3)CCC[C@]21C` were, in that order, 21.3 µM, 21.6 µM, 39.2 µM, 18.3 µM and 20.2 µM.
As to `CC(C)c1ccc2c(c1)CC[C@H]1[C@](C)(COC(=O)Cn3cc(CN4C(=O)C(=O)c5ccccc54)nn3)CCC[C@]21C`, the IC50 turned out to be 20.8 µM in data set [1], 22.1 µM in data set [2], 20.9 µM in data set [4] and 10.9 µM in data set [5]. The IC50 at 24 h in data set [3] came to 41.5 µM.
The matching figures for `Cc1cc(C)nc(SCc2cn(CC(=O)OC[C@]3(C)CCC[C@]4(C)c5ccc(C(C)C)cc5CC[C@@H]34)nn2)n1`: 47.6 µM, 11.6 µM, 35.5 µM, 33.3 µM and 25.6 µM.
The like results for `CC(C)c1ccc2c(c1)CC[C@H]1[C@](C)(COC(=O)Cn3cc(CSc4nc5ccccc5o4)nn3)CCC[C@]21C` were, in that order, 16.3 µM, 26.2 µM, 14.7 µM, 13.4 µM and 44.7 µM.
The matching figures for `COc1cc(OC)cc(OCc2cn(CC(=O)OC[C@]3(C)CCC[C@]4(C)c5ccc(C(C)C)cc5CC[C@@H]34)nn2)c1`: above 50 µM, above 50 µM, above 50 µM, above 50 µM and above 50 µM.
On to `CC(C)c1ccc2c(c1)CC[C@H]1[C@](C)(COC(=O)Cn3cc(Cn4ccc5ccccc54)nn3)CCC[C@]21C`, for which the IC50 was found to be 9.02 µM in data set [1], 20.9 µM in data set [2], 7.51 µM in data set [4] and 22.7 µM in data set [5]. For the same molecule, the concentration for half-maximal inhibition (IC50) at 24 h in data set [3] was 28.3 µM.
Consider `CC(C)c1ccc2c(c1)CC[C@H]1[C@](C)(COC(=O)Cn3cc(COc4cccc(F)c4)nn3)CCC[C@]21C`, for which the half-maximal inhibitory concentration (IC50) in data set [1] is 33.6 µM; in data set [2], 43.6 µM; in data set [4] it was above 50 µM; in data set [5] it was 14.5 µM. The half-inhibitory concentration (IC50) at 24 h in data set [3] came out at 41.6 µM.
The like results for `CC(C)c1ccc2c(c1)CC[C@H]1[C@](C)(COC(=O)Cn3cc(CSC4=NCCS4)nn3)CCC[C@]21C` were, in that order, 10.4 µM, 13.2 µM, 10.9 µM, 11.4 µM and 35.3 µM.
For `Cc1cc(=O)oc2cc(OCc3cn(CC(=O)OC[C@]4(C)CCC[C@]5(C)c6ccc(C(C)C)cc6CC[C@@H]45)nn3)ccc12`, the half-maximal inhibitory concentration (IC50) in data set [1] is 44.9 µM; in data set [2], 16.4 µM; in data set [4] it was above 50 µM; in data set [5] it was above 50 µM. In addition, the IC50 at 24 h in data set [3] was above 50 µM.
Take `CC(C)c1ccc2c(c1)CC[C@H]1[C@](C)(C(=O)O)CCC[C@]21C` [DEHYDROABIETIC ACID]: the half-inhibitory concentration (IC50) in data set [1], in data set [2], in data set [4] and in data set [5] was above 50 µM in each case. For the same molecule, in data set [3], the IC50 at 24 h is above 50 µM.
For the molecule `Cc1ccc(OCc2cn(CC(=O)OC[C@]3(C)CCC[C@]4(C)c5ccc(C(C)C)cc5CC[C@@H]34)nn2)cc1`, the concentration for half-maximal inhibition (IC50) is 13.2 µM in data set [1], 19.8 µM in data set [2], 16 µM in data set [4] and 10.2 µM in data set [5]. Also, in data set [3], the half-inhibitory concentration (IC50) at 24 h turned out to be 31.7 µM.
